The text below walks through data of US12331040B2 (Karyopharm Therapeutics Inc., priority 2013, dated 2025).

Like-named read-outs stand apart in the source and are kept apart here.

What all share (experiment): MTT cell proliferation assay
What all share (type): cell-based
A general note: Formazan colour is commonly taken as a measure of viable cells.

The subject of one assay is MS751 cells. Particulars: Homo sapiens, MS751, MS751 cells, approximately 64-72 hours incubation. The protocol: (§1) The MTT cell proliferation assay was used to study the cytotoxic properties of the compounds. The assay was performed according to the method described by Roche Molecular Biochemicals, with minor modifications. The assay is based on the cleavage of the tetrazolium salt, MTT, in the presence of an electron-coupling reagent. The water-insoluble formazan salt produced must be solubilized in an additional step. Cells grown in a 96-well tissue culture plate were incubated with the MTT solution for approximately 4 hours. After this incubation period, a water-insoluble formazan dye formed. After solubilization, the formazan dye was quantitated using a scanning multi-well spectrophotometer (ELISA reader). […] The cells were seeded at 5,000-10,000 cells in each well of 96-well plate in 100 μL of fresh culture medium and were allowed to attach overnight. The stock solutions of the compounds were diluted in 100 μL cell culture medium to obtain eight concentrations of each test compound, ranging from 1 nM to 30 μM. […] All optical densities were measured at 490 nm using a Vmax Kinetic Microplate Reader (Molecular Devices). In most cases, the assay was performed in duplicate and the results were presented as a mean percent inhibition to the negative control±SE. The following formula was used to calculate the percent of inhibition: Inhibition (%)=(1−(ODo/OD))×100.
(§2) The compounds were tested against MS751, Z138 and 3T3 cells. The MS751 cell line is derived from a metastasis to lymph node of human cervix from a patient diagnosed with squamous cell carcinoma of the cervix. The Z138 cell line is a mature B-cell acute lymphoblastic leukemia cell line derived from a patient with chronic lymphocytic leukemia. 3T3 cells are standard fibroblast cells; they were originally isolated from Swiss mouse embryo tissue.

The subject of another assay is Z138 cells. The following applies: Homo sapiens, Z-138, Z138 cells, approximately 64-72 hours incubation. On the procedure:
as §1, §2

In another assay the test system is 3T3 cells. Particulars: Mus musculus, NIH3T3, approximately 64-72 hours incubation. On the procedure:
as §1, §2

Where [1] appears, read: read-out: MTT Assay IC50, MS-751.
The mark [2] stands for this setting: read-out: MTT Assay IC50, Z-138.
Setting [3] is: read-out: MTT Assay IC50 MS-751.

As a reminder, the IC50 is the point on the concentration scale where inhibition reaches its midpoint. For `[2H]C([2H])([2H])Oc1cc(-c2ccc(C(=O)N3CCC(F)(F)CC3)cn2)cc2cc(CNC(=O)/C=C/c3ccc(N)nc3)oc12` [Compound 660, (E)-3-(6-aminopyridin-3-yl)-N-((5-(5-(4,4-difluoropiperidine-1-carbonyl)pyridin-2-yl)-7-(methoxy-d3)benzofuran-2-yl)methyl)acrylamide], the concentration for half-maximal inhibition (IC50) in the assay with MS751 cells (setting [1]) was less than 0.1 µM; with Z138 cells (setting [2]) it was less than 0.1 µM; in the assay with 3T3 cells (read-out: MTT Assay IC50, 3T3), greater than 10 µM.

Regarding `Nc1ccc(/C=C/C(=O)NCc2cc3cc(-c4ccc(NC(=O)N5CCOCC5)cc4)cc(Cl)c3o2)cn1` [Compound 582, (E)-N-(4-(2-((3-(6-aminopyridin-3-yl)acrylamido)methyl)-7-chlorobenzofuran-5-yl)phenyl)morpholine-4-carboxamide], the IC50 in the assay on MS751 cells (setting [3]) was 5 to 10 µM; with Z138 cells (read-out: MTT Assay IC50 Z-138), 5 to 10 µM; in the assay on 3T3 cells (read-out: MTT Assay IC50 3T3), greater than 10 µM.

On to `Nc1ccc(/C=C/C(=O)NCc2cc3cc(-c4ccc(C(=O)N5CCC(O)(C(F)(F)F)C5)cn4)cc(C(F)(F)F)c3o2)cn1` (stereo not drawn) [Compound 613, (E)-3-(6-aminopyridin-3-yl)-N-((5-(5-(3-hydroxy-3-(trifluoromethyl)pyrrolidine-1-carbonyl)pyridin-2-yl)-7-(trifluoromethyl)benzofuran-2-yl)methyl)acrylamide], for which the IC50 in the assay on MS751 cells (setting [3]) was 0.1 to 5 µM; in the assay on Z138 cells (read-out: MTT Assay IC50 Z-138), less than 0.1 µM; with 3T3 cells (read-out: MTT Assay IC50 3T3), greater than 10 µM.

For the compound `Nc1ccc(/C=C/C(=O)NCc2cc3cc(-c4ccc(F)c(C(=O)N5CCOCC5)c4)cc(C(F)(F)F)c3o2)cn1` [Compound 563, (E)-3-(6-aminopyridin-3-yl)-N-((5-(4-fluoro-3-(morpholine-4-carbonyl)phenyl)-7-(trifluoromethyl)benzofuran-2-yl)methyl)acrylamide], the results for the IC50 in the assay with MS751 cells (setting [3]), in the assay with Z138 cells (read-out: MTT Assay IC50 Z-138) and in the assay on 3T3 cells (read-out: MTT Assay IC50 3T3) were 0.1 to 5 µM, less than 0.1 µM and greater than 10 µM, respectively.

On to `Nc1ccc(/C=C/C(=O)NCc2cc3cc(-c4ccc(C(=O)C(=O)N5CCOCC5)cc4)cc(Cl)c3o2)cn1` [Compound 545, (E)-3-(6-Aminopyridin-3-yl)-N-((7-chloro-5-(4-(2-morpholino-2-oxoacetyl)phenyl)benzofuran-2-yl)methyl)acrylamide], for which the results for the half-inhibitory concentration (IC50) in the assay on MS751 cells (setting [3]), in the assay on Z138 cells (read-out: MTT Assay IC50 Z-138) and in the assay with 3T3 cells (read-out: MTT Assay IC50 3T3) were 0.1 to 5 µM, 0.1 to 5 µM and 5 to 10 µM, respectively.

For `Nc1ccc(/C=C/C(=O)NCc2cc3cc(-c4ccc(C(=O)N5CCOCC5)nn4)cc(Cl)c3o2)cn1` [Compound 552, (E)-3-(6-aminopyridin-3-yl)-N-((7-chloro-5-(6-(morpholine-4-carbonyl)pyridazin-3-yl)benzofuran-2-yl)methyl)acrylamide], the half-inhibitory concentration (IC50) with MS751 cells (setting [3]) was 0.1 to 5 µM; in the assay with Z138 cells (read-out: MTT Assay IC50 Z-138), 0.1 to 5 µM; in the assay with 3T3 cells (read-out: MTT Assay IC50 3T3), greater than 10 µM.

`CC1(C)COCCN1C(=O)c1ccc(-c2cc(C(F)(F)F)c3oc(CNC(=O)/C=C/c4ccc(N)nc4)cc3c2)nc1` [Compound 569, (E)-3-(6-aminopyridin-3-yl)-N-((5-(5-(3,3-dimethylmorpholine-4-carbonyl)pyridin-2-yl)-7-(trifluoromethyl)benzofuran-2-yl)methyl)acrylamide]: the IC50 is less than 0.1 µM with MS751 cells (setting [3]), less than 0.1 µM in the assay with Z138 cells (read-out: MTT Assay IC50 Z-138) and greater than 10 µM in the assay with 3T3 cells (read-out: MTT Assay IC50 3T3).

As for `COc1cc(-c2ccc(C(=O)N3CCNCC3)cc2)cc2cc(CNC(=O)/C=C/c3ccc(N)nc3)oc12` [Compound 637, (E)-3-(6-aminopyridin-3-yl)-N-((7-methoxy-5-(4-(piperazine-1-carbonyl)phenyl)benzofuran-2-yl)methyl)acrylamide], the results for the IC50 in the assay on MS751 cells (setting [3]), in the assay on Z138 cells (read-out: MTT Assay IC50 Z-138) and with 3T3 cells (read-out: MTT Assay IC50 3T3) were 0.1 to 5 µM, 0.1 to 5 µM and greater than 10 µM, respectively.

For the compound `CC1(F)CN(C(=O)c2ccc(-c3cc(C(F)(F)F)c4oc(CNC(=O)/C=C/c5ccc(N)nc5)cc4c3)cc2)C1` [Compound 587, (E)-3-(6-aminopyridin-3-yl)-N-((5-(4-(3-fluoro-3-methylazetidine-1-carbonyl)phenyl)-7-(trifluoromethyl)benzofuran-2-yl)methyl)acrylamide], the 50% inhibitory concentration (IC50) in the assay with MS751 cells (setting [3]) is 0.1 to 5 µM; with Z138 cells (read-out: MTT Assay IC50 Z-138) it was 0.1 to 5 µM; in the assay on 3T3 cells (read-out: MTT Assay IC50 3T3) it was greater than 10 µM.

Take `Nc1ccc(/C=C/C(=O)NCc2cc3cc(-c4ccc(F)c(C(=O)N5CCOCC5)c4)cc(Cl)c3o2)cn1` [Compound 562, (E)-3-(6-aminopyridin-3-yl)-N-((7-chloro-5-(4-fluoro-3-(morpholine-4-carbonyl)phenyl)benzofuran-2-yl)methyl)acrylamide]: the IC50 with MS751 cells (setting [3]) is less than 0.1 µM; with Z138 cells (read-out: MTT Assay IC50 Z-138) it was less than 0.1 µM; in the assay on 3T3 cells (read-out: MTT Assay IC50 3T3), greater than 10 µM.

`Nc1ccc(/C=C/C(=O)NCc2cc3cc(-c4ccc(C(=O)N5CCC(F)(F)CC5)cc4F)cc(-c4ccc(F)cc4F)c3o2)cn1` [Compound 753, (E)-3-(6-aminopyridin-3-yl)-N-((7-(2,4-difluorophenyl)-5-(4-(4,4-difluoropiperidine-1-carbonyl)-2-fluorophenyl)benzofuran-2-yl)methyl)acrylamide]: the IC50 in the assay with MS751 cells (setting [1]) is less than 0.1 µM; with Z138 cells (setting [2]) it was less than 0.1 µM; in the assay with 3T3 cells (read-out: MTT Assay IC50, 3T3), 0.1 to 5 µM.

Take `CC1(F)CN(C(=O)c2ccc(-c3cc(Cl)c4oc(CNC(=O)/C=C/c5ccc(N)nc5)cc4c3)cc2)C1` [Compound 599, (E)-3-(6-aminopyridin-3-yl)-N-((7-chloro-5-(4-(3-fluoro-3-methylazetidine-1-carbonyl)phenyl)benzofuran-2-yl)methyl)acrylamide]: the IC50 in the assay on MS751 cells (setting [3]) lay within 0.1 to 5 µM; in the assay with Z138 cells (read-out: MTT Assay IC50 Z-138), 0.1 to 5 µM; with 3T3 cells (read-out: MTT Assay IC50 3T3) it was 5 to 10 µM.

With `O=C(/C=C/c1cccnc1)NCc1cc2cc(-c3ccc(C(=O)N4CCC(F)(F)CC4)cn3)cc(C(F)(F)F)c2o1` [Compound 671, (E)-N-((5-(5-(4,4-difluoropiperidine-1-carbonyl)pyridin-2-yl)-7-(trifluoromethyl)benzofuran-2-yl)methyl)-3-(pyridin-3-yl)acrylamide], the half-inhibitory concentration (IC50) was 0.1 to 5 µM with MS751 cells (setting [1]); 0.1 to 5 µM with Z138 cells (setting [2]); 0.1 to 5 µM in the assay with 3T3 cells (read-out: MTT Assay IC50, 3T3).

Take `Nc1ccc(/C=C/C(=O)NCc2cc3cc(-c4ccc(C(=O)N5CC[C@@H](F)C5)cc4)cc(C(F)(F)F)c3o2)cn1` [Compound 522, (R,E)-3-(6-aminopyridin-3-yl)-N-((5-(4-(3-fluoropyrrolidine-1-carbonyl)phenyl)-7-(trifluoromethyl)benzofuran-2-yl)methyl)acrylamide]: the results for the half-inhibitory concentration (IC50) with MS751 cells (setting [3]), in the assay on Z138 cells (read-out: MTT Assay IC50 Z-138) and in the assay with 3T3 cells (read-out: MTT Assay IC50 3T3) were 0.1 to 5 µM, 0.1 to 5 µM and greater than 10 µM, respectively.

In the case of `Nc1ccc(/C=C/C(=O)NCc2cc3cc(-c4ccc(OC5CCC(F)(F)CC5)cc4)cc(-c4ccc(F)cc4)c3o2)cn1` [Compound 763, (E)-3-(6-aminopyridin-3-yl)-N-((5-(4-((4,4-difluorocyclohexyl)oxy)phenyl)-7-(4-fluorophenyl)benzofuran-2-yl)methyl)acrylamide], the IC50 was 0.1 to 5 µM in the assay on MS751 cells (setting [1]); 0.1 to 5 µM in the assay on Z138 cells (setting [2]); greater than 10 µM with 3T3 cells (read-out: MTT Assay IC50, 3T3).

In the case of `Nc1ccc(/C=C/C(=O)NCc2cc3cc(-c4ccc(C(=O)N5CCC(F)(F)CC5)cc4)cc(-c4ccc(F)nc4)c3o2)cn1` [Compound 735, (E)-3-(6-aminopyridin-3-yl)-N-((5-(4-(4,4-difluoropiperidine-1-carbonyl)phenyl)-7-(6-fluoropyridin-3-yl)benzofuran-2-yl)methyl)acrylamide], the 50% inhibitory concentration (IC50) with MS751 cells (setting [1]) is less than 0.1 µM; with Z138 cells (setting [2]), less than 0.1 µM; in the assay on 3T3 cells (read-out: MTT Assay IC50, 3T3), 0.1 to 5 µM.

For the compound `Nc1ccc(/C=C/C(=S)NCc2cc3cc(-c4ccc(C(=S)N5CCC(F)(F)CC5)cn4)cc(C(F)(F)F)c3o2)cn1` [Compound 678, (E)-3-(6-aminopyridin-3-yl)-N-((5-(5-(4,4-difluoropiperidine-1-carbonothioyl)pyridin-2-yl)-7-(trifluoromethyl)benzofuran-2-yl)methyl)prop-2-enethioamide], the half-maximal inhibitory concentration (IC50) was 0.1 to 5 µM in the assay with MS751 cells (setting [1]); 0.1 to 5 µM with Z138 cells (setting [2]); greater than 10 µM in the assay on 3T3 cells (read-out: MTT Assay IC50, 3T3).

As to `O=C(/C=C/c1cccnc1)NCc1cc2cc(-c3ccc(C(=O)N4CCC(F)(F)CC4)cc3)cc(C(F)(F)F)c2o1` [Compound 682, (E)-N-((5-(4-(4,4-difluoropiperidine-1-carbonyl)phenyl)-7-(trifluoromethyl)benzofuran-2-yl)methyl)-3-(pyridin-3-yl)acrylamide], the IC50 lay within 0.1 to 5 µM with MS751 cells (setting [1]); 0.1 to 5 µM in the assay on Z138 cells (setting [2]); 0.1 to 5 µM in the assay with 3T3 cells (read-out: MTT Assay IC50, 3T3).

On to `CC(C)(C)c1cc(-c2ccc(C(=O)N3CCOCC3)cc2)cc2cc(CNC(=O)/C=C/c3ccc(N)nc3)oc12` [Compound 511, (E)-3-(6-aminopyridin-3-yl)-N-((7-tert-butyl-5-(4-(morpholine-4-carbonyl)phenyl)benzofuran-2-yl)methyl)acrylamide], for which the IC50 with MS751 cells (setting [3]) is 0.1 to 5 µM; in the assay with Z138 cells (read-out: MTT Assay IC50 Z-138) it was 0.1 to 5 µM; with 3T3 cells (read-out: MTT Assay IC50 3T3), greater than 10 µM.
